From patent US20250171744A1, “METHODS OF REPROGRAMMING SOMATIC CELLS AND MATERIALS RELATED THERETO” (CITY OF HOPE, priority 2019, published 2025) come the findings set out here.

Data set [1] relates to HEK293T cells. The data set is described as follows: 3-germ layer immunocytochemistry of embryoid bodies (FIG. 29). The conditions noted are these: compared with H1 and iPSCs. It is filed as cell-based, human. An excerpt:
(§1) Pluripotent cells can differentiate into all cell types, so these cells can be a biological resource for regenerative medicine. Somatic cells can acquire the embryonic stem cell-like pluripotency by the introduction of four transcription factors, Oct4, Sox2, Klf4 and c-Myc (Yamanaka factors). Murine ES-like cell lines were established from mouse embryonic fibroblasts (MEFs) and skin fibroblasts by simply expressing these four transcription factor genes encoding Oct4, Sox2, Klf4, and c-Myc (71). After introducing active transcription factors into somatic cells, the somatic cells closely resemble ES cells in gene expression patterns, cell biologic and phenotypic characteristics. Since then, numerous studies have established that these transcription factors mediate reprogramming regardless of developmental origins and epigenetic states of a cell. These transcription factors are non-functional in somatic cells due to gene silencing. […] Using the technology disclosed herein, nuclear reprogramming of somatic cells was induced possibly due to active Oct4, Sox2, Nanog, and other pluripotency genes, reduced DNA methylation, reduced histone methylation, and altered metabolism of certain biochemical factors (such as glutamine, glutamate, and GABA). This leads to the formation of embryoid bodies from single cells and differentiation into the mesoderm, endoderm, and neuronal ectoderm lineages with high efficiency in the differentiation medium. The 3-Germ Layer Immunocytochemistry Kit (ThermoFisher Scientific, USA), which analyzes spontaneously differentiated embryoid bodies derived from pluripotent stem cells for the presence of all 3-germ layers, was used to confirm the reprogramming. The assay detected widely accepted markers characteristic of the three embryonic germ layers: beta-Ill tubulin (TUJ1) for ectoderm, smooth muscle actin (SMA) for mesoderm, and alpha-fetoprotein (AFP) for endoderm. […] The ectoderm which differentiates to form the nervous system (spine, peripheral nerves, neurons, and brain) was not tested with this kit; however, the presence of neurons was confirmed by a different marker. A Human Neural Stem Cell Immunocytochemistry Kit (ThermoFisher Scientific, USA) which enables a convenient image-based analysis of common markers of human neural stem cells such as Nestin was used. […] Together, the disclosed methods result in the presence of all 3-germ layers in the MTX/PTX treated cells and these treated cells can differentiate into all cell types including beta cells.
(§2) A 3-germ layer immunocytochemistry kit (Thermo Fisher Scientific, USA) was used to assess the pluripotency of embryoid bodies derived from MTX and PTX treated cells.

The test system of data set [2] is HF57. The data set is described as above. It is filed as cell-based, human. The conditions noted are these: compared with H1 and iPSCs.
Text: as §1, §2

The subject of data set [3] is MTX/PTX treated, SSEA4 positive cells. The data set is described as follows: Neural differentiation (FIG. 30). It is filed as cell-based, human. The conditions noted are these: neural differentiation medium, laminin coated plates, 10-15-days. The procedure:
For neural differentiation, MTX/PTX treated, SSEA4 positive cells were initially grown onto Matrigel-coated 6-well plates in mTeSR1 medium. To induce neural differentiation, the cells were dissociated and passaged onto laminin (20 μg ml−1; Sigma-Aldrich, USA) coated plates and grown in Neurobasal medium (Thermo Fisher Scientific, USA) or RPMI1640 medium (Gibco, USA) for 10-15-days at 37° C./5% CO2. The medium was supplemented with 1% serum free B-27 (Gibco, USA), 1% Glutamax (Gibco, USA), 1% NEAA (Gibco, USA), and 1% penicillin/streptomycin (Gibco, USA).

The subject of data set [4] is HEK293T cells. The data set is described as follows: Histone methylation levels (FIG. 19). The format is cell-based, human. The conditions noted are these: vs control. The method, then: (§3) Calculation of methylation level (based on OD values as shown on y-axis) was performed according to manufacturer's instructions. Representative histogram from three independent experiments are shown. All data are presented as the mean±standard error (SE) of triplicate measurements. *P<0.05, ***P<0.001.

For data set [5], the system named is HF57 cells. The data set is described as follows: Histone methylation levels (FIG. 19). The format is cell-based, human. The conditions noted are these: vs control. The procedure:
as §3

Data set [6] relates to Sox2 and Oct4 (stem cell markers). The data set is described as follows: qRT-PCR relative transcript levels of stem cell markers (FIG. 21A). The format is cell-based, human. The conditions noted are these: cell line not given, vs control cells. The procedure:
To validate microarray results, quantitative 2-step RT-PCR was performed. One microgram of total RNA was reverse transcribed to first-strand cDNA with the Qiagen cDNA Synthesis Kit (Qiagen), and this cDNA was subsequently used as a template for quantitative PCR with gene-specific primers. The ubiquitous β-actin gene served as a control for constitutive gene expression. The quantitative RT-PCR (qRT-PCR) reactions were performed using Power Sybr Green PCR Master Mix (Thermo Fisher Scientific) on a CFX96 Touch Real-Time PCR Detection System (Bio-Rad, Hercules, CA, USA). Relative expression levels (2^−ΔCt) were calculated according to the Livak and Schmittgen method (40). Expression levels of each gene were compared with the expression level of actin.
A general note: Real-time PCR tracks product formation cycle by cycle.

A short description of data set [7]: Cell viability after MTX or PTX treatment (FIG. 17). It is filed as cell-based. The conditions noted are these: human; for viability: post MTX or PTX treatment; for viability at 5 days: HEK293T cells, after 5-days of MTX or PTX treatment, read-out: viable cells. The procedure:
Call quantification, imaging, and statistical analysis: Cells were quantified using a Cellometer Auto T4 counting chamber after mixing in a 1:1 ratio with Trypan blue (MilliporeSigma) to exclude dead cells. The average of 2 separate counts was taken to calculate the cell numbers. All live cell imaging was conducted using an EVOS FL Auto microscope (Thermo Fisher Scientific). All statistical analysis was performed using a paired Student's t test with Bonferroni correction or 1-sample Student's t test. Values of P<0.05 were considered significant.

The test system of data set [8] is HF57 cells. The data set is described as follows: Global DNA methylation, 5mC ELISA (FIG. 18). The format is cell-based, human. The conditions noted are these: 7-days; vs untreated cells. The procedure: Equal amount of DNA (100 ng) was analyzed with 5mC enzyme-linked immunosorbent assay (ELISA) (EpiGentek). […] Error bars represent the standard error for at least three independent experiments and three technical replicates.
Global DNA methylation measurement Global 5-methylcytosine (5-mC) levels were quantified using the MethylFlash Methylated DNA Quantification Kits (Epigentek, Farmingdale, NY, USA). The DNA concentration was determined using the Qubit Assay (Thermo Fisher Scientific) according to the manufacturer's protocol. Briefly, 100 ng of DNA was used for incubation with both capture and detection antibodies using MethylFlash Methylated DNA Quantification Kit (Colorimetric) from Epigentek. Subsequently, measurements of the absorbance of the sample at 450 nm in a microplate spectrophotometer (BioTek Instruments, Winooski, VT, USA) were performed with the percentage of the whole genome 5-mC calculation according to manufacturer's instructions. Genomic methylation levels in study samples were expressed as percentage of 5-mC.
(In general: ELISA stands for enzyme-linked immunosorbent assay.)

Molecules are shown by their SMILES.

`CN(Cc1cnc2nc(N)nc(N)c2n1)c1ccc(C(=O)N[C@@H](CCC(=O)O)C(=O)O)cc1` [MTX, methotrexate]: the “presence of three germ layers in embryoid bodies” value in data set [1] and in data set [2] was “confirmed the presence of all three germ layers” each time. The “differentiation into neural cells” value in data set [3] was “can differentiate into neural cells”. Besides, the “Dimethyl H3-K9 methylation” value in data set [4] and in data set [5] was “significantly reduced” throughout. Moreover, the “global histone H3-K4 methylation” value in data set [4] and in data set [5] was “significantly reduced” each time. Further, in data set [6], the “relative transcripts level of Oct4” value was “significantly higher”. In addition, the “relative transcripts level of Sox2” value in data set [6] is recorded as “significantly higher”. Also, the viability in data set [7] (HDF fibroblast cell line) and in data set [7] (HF57 fibroblast cell line) was 60 to 75% throughout. Also, the viability at 5 days in data set [7] lay within 20 to 25%. Besides, in data set [8], the “global DNA methylation (5mC content)” value is given as “significant reduction in global DNA methylation”.
On to `Nc1nc2[nH]cc(CCc3ccc(C(=O)N[C@@H](CCC(=O)O)C(=O)O)cc3)c2c(=O)[nH]1` [PTX, pemetrexed], for which the “presence of three germ layers in embryoid bodies” value in data set [1] and in data set [2] was “confirmed the presence of all three germ layers” each time. Besides, the “differentiation into neural cells” value in data set [3] is “can differentiate into neural cells”. For the same compound, the “Dimethyl H3-K9 methylation” value in data set [4] and in data set [5] was “significantly reduced” throughout. The “global histone H3-K4 methylation” value in data set [4] and in data set [5] was “significantly reduced” each time. In addition, the viability in data set [7] (HDF fibroblast cell line) and in data set [7] (HF57 fibroblast cell line) was 60 to 75% each time. In addition, the viability at 5 days in data set [7] is 20 to 25%. For the same compound, the “global DNA methylation (5mC content)” value in data set [8] is on record as “significant reduction in global DNA methylation”.
